Assay results taken from patent publication US20140275090A1, “BILE ACID RECYCLING INHIBITORS FOR TREATMENT OF PRIMARY SCLEROSING CHOLANGITIS AND INFLAMMATORY BOWEL DISEASE” (Lumena Pharmaceuticals, Inc., priority 2013, published 2014).

How the values were obtained:
serum bile acids [1] = assay: Inhibition of the postprandial rise in SBA (AUC 0-240 min) in dogs, LUM001 compared to cholestyramine; assay type: in vivo, dog
Method: LUM001 was dissolved in 0.2% Tween 80 at concentrations that required the administration of 0.2 ml dosing solution/kg of body weight at each dose tested. Cholestyramine was suspended in water at concentrations that required the administration of 2.5 ml/kg (500 mg/kg) and 1 ml/kg (200 mg/kg). The appropriate volume of solution formulation for each animal was placed into a gelatin capsule, Torpac Inc., size 13, Batch 594, East Hanover, N.J. and administered per os. Test compounds were administered as single oral doses to groups of dogs, 3 to 9 dogs per group at varying dosages. LUM001 was given at 0, 0.02, 0.05, 0.2, 0.6, 2, 5 or 15 mg/kg. Cholestyramine was administered at 200 or 500 mg/kg. […] No dog received any one compound dosage more than once. SBA was measured by an enzymatic assay. SBA values are expressed as μg of total bile acids/ml of serum.

serum bile acids [2] = assay: Phase 1 ascending multiple oral doses of LUM001 in healthy adults: serum bile acid analysis; assay type: in vivo, human; settings: 28 days
Method: This Phase 1 study was a randomized, double-blind, placebo-controlled study of ascending multiple oral doses of LUM001 in healthy, adult subjects. This study was conducted at a single center. There were 13 LUM001 dosing panels: 10, 20, 60, 100, and 20 mg every morning (qAM) (2) (i.e., the regimen was tested a second time in the study), 5 mg every evening (qPM), 0.5, 1, 2.5, 5, 2.5 (2), 5 (2), and 0.5 to 5 mg qAM dose titration. Most of the dosing panels included subjects treated with matching placebo. No subject participated in more than 1 dosing panel. Subjects were randomized into the study by dosing panel, and all subjects within a dosing panel received study medication at approximately the same time each day. Safety was reviewed for each panel before subsequent panels were initiated. A total of 167 subjects were treated for 28 days, 147 with LUM001 and 20 with placebo. […]
On Day 1 of the Treatment Period, subjects who qualified for enrollment were randomized in the order in which they were admitted to the research facility. […] The safety and tolerability of LUM001 were evaluated by physical examination, ascertainment of adverse signs and symptoms, and clinical laboratory studies. […]
SBA were analyzed as part of the routine clinical analysis of the serum samples collected at each time point.

serum bile acids [3] = assay: Fasting and post-prandial peak serum bile acids in children and adolescents after eight days of LUM001; assay type: in vivo, human; settings: LUM001 treated patients
Method: The efficacy of LUM001 was determined by measuring total serum bile acids after eight days of dosing in children and adolescents under the age of eighteen. Thirty minutes before the next drug administration, at approximately 8 am in the morning, serum bile acid levels were measured. The child had refrained from food for 12 hours prior to this sample thus providing a fasted level of serum bile acid. After breakfast, serum bile acids were measured for up to the next 4 hours (8 am to noon) and the peak serum bile acid concentration noted.

[4] = Open-label single-dose [14C]LUM001 oral solution study: radioactivity in plasma, whole blood, urine, feces; assay type: in vivo, human; settings: for Radioactive Concentration, Plasma / Radioactive Concentration, Whole Blood: 5 mg [14C]LUM001 oral solution
Method: This was an open-label, one-period, single-dose study of a [^14C]LUM001 oral solution. Eight healthy male subjects received an oral solution of 5 mg [^14C]LUM001 (containing approximately […] per dose). Blood samples were collected at predose and for 72 hours postdose, urine samples were collected predose and for 168 hours postdose and feces were collected predose and for 216 hours postdose. Plasma, whole blood, urine and fecal samples were analyzed for total radioactivity, and selected fecal samples were analyzed for LUM001 and relevant metabolite concentrations. In addition, metabolic profiles in selected fecal samples were obtained using high performance liquid radio chromatography (HPLRC).

- Radioactive Concentration, Plasma ([4]; 0.5 hr): BLQ
- Radioactive Concentration, Plasma ([4]; 1 hr): BLQ
- Radioactive Concentration, Whole Blood ([4]; 1 hr): 0.000 ng equivalents/g
- Radioactive Concentration, Plasma ([4]; 1.5 hr): BLQ
- Radioactive Concentration, Plasma ([4]; 2 hr): BLQ
- Radioactive Concentration, Plasma ([4]; 2.5 hr): BLQ
- Radioactive Concentration, Plasma ([4]; 3 hr): BLQ
- Radioactive Concentration, Plasma ([4]; 4 hr): BLQ
- Radioactive Concentration, Whole Blood ([4]; 4 hr): 0.000 ng equivalents/g
- Radioactive Concentration, Plasma ([4]; 6 hr): BLQ
- Radioactive Concentration, Plasma ([4]; 8 hr): BLQ
- Radioactive Concentration, Plasma ([4]; 12 hr): BLQ
- Radioactive Concentration, Plasma ([4]; 16 hr): 0.000 ng equivalents/mL
- Radioactive Concentration, Plasma ([4]; 24 hr): BLQ
- Radioactive Concentration, Plasma ([4]; 36 hr): 0.000 ng equivalents/mL
- Radioactive Concentration, Plasma ([4]; 48 hr): BLQ
- Radioactive Concentration, Plasma ([4]; 60 hr): BLQ
- Radioactive Concentration, Plasma ([4]; 72 hr): BLQ
- Radioactive Concentration, Whole Blood ([4]; −0.5 hr): 0.000 ng equivalents/g
- Percent of Dose ([4]; analyte in feces, mean): 65.0 ± 3.1%
- Cumulative % of Total Dose, Total (Urine and Feces) ([4]; radioactivity): 72.532%
- Cumulative % of Total Dose, Urine ([4]; radioactivity, 0-2 hr): 0.005%
- Cumulative % of Total Dose, Feces ([4]; radioactivity, 0-24 hr): 30.376%
- Cumulative % of Total Dose, Urine ([4]; radioactivity, 2-4 hr): 0.012%
- Cumulative % of Total Dose, Urine ([4]; radioactivity, 4-8 hr): 0.028%
- Cumulative % of Total Dose, Urine ([4]; radioactivity, 8-12 hr): 0.041%
- Cumulative % of Total Dose, Urine ([4]; radioactivity, 12-24 hr): 0.058%
- Cumulative % of Total Dose, Feces ([4]; radioactivity, 24-48 hr): 49.878%
- Cumulative % of Total Dose, Urine ([4]; radioactivity, 24-48 hr): 0.057%
- Cumulative % of Total Dose, Feces ([4]; radioactivity, 48-72 hr): 67.630%
- Cumulative % of Total Dose, Urine ([4]; radioactivity, 48-72 hr): 0.062%
- Cumulative % of Total Dose, Feces ([4]; radioactivity, 72-96 hr): 69.653%
- Cumulative % of Total Dose, Urine ([4]; radioactivity, 72-96 hr): 0.063%
- Cumulative % of Total Dose, Feces ([4]; radioactivity, 96-120 hr): 71.606%
- Cumulative % of Total Dose, Urine ([4]; radioactivity, 96-120 hr): 0.063%
- Cumulative % of Total Dose, Feces ([4]; radioactivity, 120-144 hr): 71.771%
- Cumulative % of Total Dose, Urine ([4]; radioactivity, 120-144 hr): 0.064%
- Cumulative % of Total Dose, Feces ([4]; radioactivity, 144-168 hr): 71.815%
- Cumulative % of Total Dose, Urine ([4]; radioactivity, 144-168 hr): 0.066%
- Cumulative % of Total Dose, Feces ([4]; radioactivity, 168-192 hr): 71.885%
- Cumulative % of Total Dose, Feces ([4]; radioactivity, 192-216 hr): 71.885%
- Cumulative % of Total Dose, Feces ([4]; radioactivity, incl. Toilet Paper (cumulative recovery from first five fecal samples)): 72.466%
SMILES: CCCCC1(CCCC)CS(=O)(=O)c2ccc(N(C)C)cc2[C@@H](c2ccc(OCc3ccc(C[N+]45CCN(CC4)CC5)cc3)cc2)[C@H]1O [LUM001]
- inhibition of postprandial serum bile acids AUC compared to cholestyramine (serum bile acids [1]; cholestyramine 200 or 500 mg/kg, AUC 0-240 min): superior inhibition
- effect on serum bile acids (serum bile acids [1]; single oral doses 0.02-15 mg/kg): significantly decreased
- effect on serum bile acids (serum bile acids [2]): significant reduction
- decrease in fasting serum bile acid level vs placebo (serum bile acids [3]): 24%
- decrease in post-prandial peak serum bile acid level vs placebo (serum bile acids [3]): 23%
